Drawing on ChEMBL document CHEMBL3871267, “Design and synthesis of 1,2,3-triazole-containing N-acyl zanamivir analogs as potent neuraminidase inhibitors” (Eur J Med Chem, 2016), this text covers IC50 for 19 compounds.

Test [1] in a line: Inhibition of MDCK infected Influenza A virus A/Taiwan/3446/2002(H3N2) neuraminidase using MU-NANA as substrate preincubated for 30 mins followed by substrate addition measured after 1 hr by spectrofluorometric method. The test is classed as cell-based.
Test [2] deals with Neuraminidase (Influenza A virus (strain A/Wilson-Smith/1933 H1N1) (Influenza A virus(strain A/WS/1933 H1N1)), UniProt P03470). Put plainly: Inhibition of MDCK infected Influenza A virus A/WSN/33(H1N1) neuraminidase using MU-NANA as substrate preincubated for 30 mins followed by substrate addition measured after 1 hr by spectrofluorometric method. The test is classed as cell-based, Influenza A virus (A/WSN/1933(H1N1)).

Test [3] has the same target. The experiment in a line: Competitive inhibition of MDCK infected Influenza A virus A/WSN/33(H1N1) neuraminidase using MU-NANA as substrate preincubated for 30 mins followed by substrate addition measured after 1 hr by spectrofluorometric method. The test is classed as cell-based, Influenza A virus (A/WSN/1933(H1N1)).
A short description of test [4]: Competitive inhibition of MDCK infected Influenza A virus A/Taiwan/3446/2002(H3N2) neuraminidase using MU-NANA as substrate preincubated for 30 mins followed by substrate addition measured after 1 hr by spectrofluorometric method.

Sequence of Neuraminidase (Influenza A virus (strain A/Wilson-Smith/1933 H1N1) (Influenza A virus(strain A/WS/1933 H1N1)), UniProt P03470) (P03470 whole entry): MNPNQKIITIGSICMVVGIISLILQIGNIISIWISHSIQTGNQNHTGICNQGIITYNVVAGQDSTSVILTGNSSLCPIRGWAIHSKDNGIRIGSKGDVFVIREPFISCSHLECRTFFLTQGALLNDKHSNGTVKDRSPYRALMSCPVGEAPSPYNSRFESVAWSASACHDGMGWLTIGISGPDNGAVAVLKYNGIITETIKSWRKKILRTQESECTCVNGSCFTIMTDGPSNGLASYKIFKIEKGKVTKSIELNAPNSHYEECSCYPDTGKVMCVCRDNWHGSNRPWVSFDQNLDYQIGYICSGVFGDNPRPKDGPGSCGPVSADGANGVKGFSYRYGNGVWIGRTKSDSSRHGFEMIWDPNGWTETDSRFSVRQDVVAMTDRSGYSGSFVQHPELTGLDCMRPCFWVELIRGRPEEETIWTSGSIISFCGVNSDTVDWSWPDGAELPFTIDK

What is called IC50 is the concentration that gives 50% inhibition. With `CC(=O)N[C@H]1[C@H]([C@H](O)[C@H](O)CO)OC(C(=O)O)=C[C@@H]1NC(=N)NC(=O)Cn1cc(C2=CCCCC2)nn1`, the concentration for half-maximal inhibition (IC50) amounted to 0.017 µM in test [1] and 0.015 µM in test [2].

As for `CC(=O)N[C@H]1[C@H]([C@H](O)[C@H](O)CO)OC(C(=O)O)=C[C@@H]1NC(=N)NC(=O)Cn1cc(-c2cccc(F)c2)nn1`, the results for the 50% inhibitory concentration (IC50) in test [1] and in test [2] were 0.017 µM and 0.014 µM, respectively.

For `CC(=O)N[C@H]1[C@H]([C@H](O)[C@H](O)CO)OC(C(=O)O)=C[C@@H]1NC(=N)NC(=O)Cn1cc(-c2cccc(Cl)c2)nn1`, the half-maximal inhibitory concentration (IC50) in test [1] is 0.008 µM; in test [2] it was 0.009 µM.

With `CC(=O)N[C@H]1[C@H]([C@H](O)[C@H](O)CO)OC(C(=O)O)=C[C@@H]1NC(=N)NC(=O)Cn1cc(-c2ccccc2N)nn1`, the half-inhibitory concentration (IC50) in test [1] was 0.013 µM; in test [2] it was 0.012 µM.

With `CC(=O)N[C@H]1C([C@H](O)[C@H](O)CO)OC(C(=O)O)=C[C@@H]1NC(=N)NC(=O)Cn1cc(-c2ccccc2)nn1` (stereo partly drawn), the IC50 in test [3] is 0.0099 µM; in test [4], 0.008 µM.

For the compound `CC(=O)N[C@H]1[C@H]([C@H](O)[C@H](O)CO)OC(C(=O)O)=C[C@@H]1NC(=N)NC(=O)Cn1cc(-c2ccc(Cl)cc2)nn1`, the IC50 is 0.014 µM in test [1] and 0.015 µM in test [2].

On to `CC(=O)N[C@H]1C([C@H](O)[C@H](O)CO)OC(C(=O)O)=C[C@@H]1NC(=N)NC(=O)CCCCn1cc(-c2ccccc2)nn1` (stereo partly drawn), for which the IC50 was determined as 0.169 µM in test [3] and 0.11 µM in test [4].

Regarding `COc1ccccc1-c1cn(CC(=O)NC(=N)N[C@H]2C=C(C(=O)O)O[C@@H]([C@H](O)[C@H](O)CO)[C@@H]2NC(C)=O)nn1`, the IC50 in test [1] was 0.01 µM; in test [2], 0.008 µM.

Regarding `CC(=O)N[C@H]1C([C@H](O)[C@H](O)CO)OC(C(=O)O)=C[C@@H]1NC(=N)NC(=O)CCn1cc(-c2ccccc2)nn1` (stereo partly drawn), the IC50 amounted to 0.146 µM in test [3] and 0.135 µM in test [4].

As for `CC(=O)N[C@H]1[C@H]([C@H](O)[C@H](O)CO)OC(C(=O)O)=C[C@@H]1NC(=N)NC(=O)Cn1cc(-c2ccc(N)cc2)nn1`, the 50% inhibitory concentration (IC50) in test [1] amounted to 0.013 µM; in test [2] it was 0.012 µM.

On to `CCOC(=O)c1cccc(-c2cn(CC(=O)NC(=N)N[C@H]3C=C(C(=O)O)O[C@@H]([C@H](O)[C@H](O)CO)[C@@H]3NC(C)=O)nn2)c1`, for which the IC50 was 0.019 µM in test [1] and 0.013 µM in test [2].

For `CC(=O)N[C@H]1[C@H]([C@H](O)[C@H](O)CO)OC(C(=O)O)=C[C@@H]1NC(=N)NC(=O)Cn1cc(C2CCCCC2)nn1`, the IC50 worked out at 0.0029 µM in test [1] and 0.0023 µM in test [2].

Take `COc1ccc(-c2cn(CC(=O)NC(=N)N[C@H]3C=C(C(=O)O)O[C@@H]([C@H](O)[C@H](O)CO)[C@@H]3NC(C)=O)nn2)cc1`: the IC50 amounted to 0.017 µM in test [1] and 0.012 µM in test [2].

In the case of `CC(=O)N[C@H]1[C@H]([C@H](O)[C@H](O)CO)OC(C(=O)O)=C[C@@H]1NC(=N)NC(=O)Cn1cc(-c2ccc(C)cc2)nn1`, the half-inhibitory concentration (IC50) in test [1] was 0.017 µM; in test [2], 0.014 µM.

Take `CC(=O)N[C@H]1[C@H]([C@H](O)[C@H](O)CO)OC(C(=O)O)=C[C@@H]1NC(=N)NC(=O)CSc1ccc2ccccc2c1`: the 50% inhibitory concentration (IC50) in test [1] turned out to be 0.025 µM; in test [2] it was 0.02 µM.

On to `CC(=O)N[C@H]1C([C@H](O)[C@H](O)CO)OC(C(=O)O)=C[C@@H]1NC(=N)NC(=O)CCCn1cc(-c2ccccc2)nn1` (stereo partly drawn), for which the IC50 was found to be 0.238 µM in test [3] and 0.228 µM in test [4].

As for `COc1ccc2cc(-c3cn(CC(=O)NC(=N)N[C@H]4C=C(C(=O)O)O[C@@H]([C@H](O)[C@H](O)CO)[C@@H]4NC(C)=O)nn3)ccc2c1`, the 50% inhibitory concentration (IC50) was 0.028 µM in test [1] and 0.031 µM in test [2].

For the compound `CC(=O)N[C@H]1[C@H]([C@H](O)[C@H](O)CO)OC(C(=O)O)=C[C@@H]1NC(=N)NC(=O)Cn1cc(-c2ccc(F)cc2)nn1`, the concentration for half-maximal inhibition (IC50) worked out at 0.027 µM in test [1] and 0.029 µM in test [2].

As to `CC(=O)N[C@H]1[C@H]([C@H](O)[C@H](O)CO)OC(C(=O)O)=C[C@@H]1NC(=N)NC(=O)Cn1cc(-c2cccc(N)c2)nn1`, the half-inhibitory concentration (IC50) in test [1] is 0.011 µM; in test [2] it was 0.01 µM.
